Assay results reported in PubChem BioAssay (NCI).
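Grown in 96-well plates, cells were treated for 48 hours with each compound at five concentrations. Insufficient inhibition: endpoint recorded as highest concentration tested. TGI denotes the concentration required for complete inhibition of growth.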

Legend:
Assay in all cases: DTP human tumour cell line panel, 48 h
CCRF-CEM leukemia = system: CCRF-CEM leukemia
HCC-2998 colon = system: HCC-2998 colon
HOP-62 NSCLC = system: HOP-62 NSCLC
NCI-H522 lung = system: NCI-H522 lung
SF-268 CNS = system: SF-268 CNS
SK-MEL-28 melanoma = system: SK-MEL-28 melanoma
TK-10 renal = system: TK-10 renal
U251 CNS = system: U251 CNS
UACC-62 melanoma = system: UACC-62 melanoma

O=[N+]([O-])c1cccnc1S(=O)(=O)c1ccccc1
TGI (CCRF-CEM leukemia): > 100 µM | TGI (HCC-2998 colon): 39.6 µM | TGI (HOP-62 NSCLC): 32.8 µM | TGI (NCI-H522 lung): 2.82 µM | TGI (SF-268 CNS): 27.3 µM | TGI (SK-MEL-28 melanoma): 34.6 µM | TGI (TK-10 renal): 22.2 µM | TGI (U251 CNS): 22.8 µM | TGI (UACC-62 melanoma): 23.9 µM

CCc1c(OC(C)=O)c2c(NC3OC(COC(C)=O)C(OC(C)=O)C(OC(C)=O)C3OC(C)=O)nc(SC)nc2oc1=O (configuration not stated)
TGI (CCRF-CEM leukemia): > 100 µM | TGI (HCC-2998 colon): > 100 µM | TGI (HOP-62 NSCLC): > 100 µM | TGI (TK-10 renal): > 100 µM | TGI (U251 CNS): > 100 µM | TGI (UACC-62 melanoma): > 100 µM

COc1ccccc1/C=C(\NC(=O)c1ccccc1)c1nc2ccc(Cl)cc2[nH]1
TGI (CCRF-CEM leukemia): > 100 µM | TGI (NCI-H522 lung): 49.5 µM | TGI (SF-268 CNS): > 100 µM | TGI (SK-MEL-28 melanoma): > 100 µM | TGI (TK-10 renal): 73.7 µM | TGI (U251 CNS): > 100 µM | TGI (UACC-62 melanoma): 55.3 µM

O=C1C2C(C(=O)N1Cc1ccccc1)N(Cc1ccccc1)C(=O)N2Cc1ccccc1 (configuration not stated)
TGI (CCRF-CEM leukemia): > 100 µM | TGI (HCC-2998 colon): > 100 µM | TGI (HOP-62 NSCLC): > 100 µM | TGI (NCI-H522 lung): > 100 µM | TGI (SF-268 CNS): > 100 µM | TGI (SK-MEL-28 melanoma): > 100 µM | TGI (TK-10 renal): > 100 µM | TGI (U251 CNS): > 100 µM | TGI (UACC-62 melanoma): > 100 µM

CCCCCCCCCCCCCCCC(=O)OCC1OC(n2cc(F)c(=O)[nH]c2=O)C(NC(=O)OCc2ccccc2)C(O)C1O (configuration not stated)
TGI (CCRF-CEM leukemia): 30 µM | TGI (HCC-2998 colon): 31.9 µM | TGI (SF-268 CNS): 54 µM | TGI (TK-10 renal): 43 µM | TGI (U251 CNS): 31.4 µM | TGI (UACC-62 melanoma): 35.3 µM

C[n+]1cn(CC(=O)c2ccccc2)c(C(N)=O)c1N
TGI (CCRF-CEM leukemia): > 100 µM | TGI (HCC-2998 colon): > 100 µM | TGI (HOP-62 NSCLC): > 100 µM | TGI (NCI-H522 lung): > 100 µM | TGI (SF-268 CNS): > 100 µM | TGI (SK-MEL-28 melanoma): > 100 µM | TGI (TK-10 renal): > 100 µM | TGI (U251 CNS): > 100 µM | TGI (UACC-62 melanoma): > 100 µM

C=C1C(=O)O[C@@H]2C[C@@]3(C)[C@H](O)CCC(=C)[C@@H]3C[C@H]12
TGI (CCRF-CEM leukemia): 14.1 µM | TGI (HCC-2998 colon): 23.8 µM | TGI (HOP-62 NSCLC): 34 µM | TGI (NCI-H522 lung): 17.6 µM | TGI (SF-268 CNS): 34.9 µM | TGI (SK-MEL-28 melanoma): 20.2 µM | TGI (TK-10 renal): 25 µM | TGI (U251 CNS): 26.2 µM | TGI (UACC-62 melanoma): 19 µM

COc1ccc(/C=C/C(=O)c2c(-c3ccccc3)nn(C)c(=O)c2N2CCCCC2)cc1
TGI (CCRF-CEM leukemia): 40.2 µM | TGI (NCI-H522 lung): 27.3 µM | TGI (SF-268 CNS): 66.1 µM | TGI (SK-MEL-28 melanoma): 30.2 µM | TGI (TK-10 renal): > 100 µM | TGI (U251 CNS): 30.1 µM | TGI (UACC-62 melanoma): 44.8 µM

O=C([O-])c1ccc([I+]c2ccccc2)cc1
TGI (CCRF-CEM leukemia): > 100 µM | TGI (HCC-2998 colon): > 100 µM | TGI (HOP-62 NSCLC): > 100 µM | TGI (NCI-H522 lung): > 100 µM | TGI (SF-268 CNS): > 100 µM | TGI (TK-10 renal): > 100 µM | TGI (U251 CNS): > 100 µM | TGI (UACC-62 melanoma): > 100 µM

Cc1ccc(-n2nc(C(OC3OC(CO)C(O)C(O)C3O)C(O)CO)c3nc4cc(C)c(C)cc4nc32)cc1 (configuration not stated)
TGI (CCRF-CEM leukemia): > 100 µM | TGI (HCC-2998 colon): > 100 µM | TGI (HOP-62 NSCLC): > 100 µM | TGI (NCI-H522 lung): > 100 µM | TGI (SF-268 CNS): > 100 µM | TGI (SK-MEL-28 melanoma): > 100 µM | TGI (TK-10 renal): > 100 µM | TGI (U251 CNS): > 100 µM | TGI (UACC-62 melanoma): > 100 µM

O=C(O)c1ccccc1C(=O)c1ccco1
TGI (CCRF-CEM leukemia): > 100 µM | TGI (HCC-2998 colon): > 100 µM | TGI (HOP-62 NSCLC): > 100 µM | TGI (NCI-H522 lung): > 100 µM | TGI (SF-268 CNS): > 100 µM | TGI (SK-MEL-28 melanoma): > 100 µM | TGI (TK-10 renal): > 100 µM | TGI (U251 CNS): > 100 µM | TGI (UACC-62 melanoma): > 100 µM

O=c1c2ccccc2nc(-c2cccc(Cl)c2)n1NC1OC(CO)C(O)C(O)C1O (configuration not stated)
TGI (CCRF-CEM leukemia): > 100 µM | TGI (HCC-2998 colon): > 100 µM | TGI (HOP-62 NSCLC): > 100 µM | TGI (NCI-H522 lung): > 100 µM | TGI (SF-268 CNS): > 100 µM | TGI (SK-MEL-28 melanoma): > 100 µM | TGI (TK-10 renal): > 100 µM | TGI (U251 CNS): > 100 µM | TGI (UACC-62 melanoma): > 100 µM
